Data taken from patent US4389412A, “Substituted cyclopropanecarboxylic acid esters and pesticidal compositions containing the same as active ingredient” (priority 1979, dated 1983).
In brackets after ≈: the same amount, converted by molar mass. Like-named read-outs stand apart in the source and are kept apart here.

How the values were obtained:
[1] = tested on: houseflies (Musca domestica); experiment: Mortality test with houseflies by topical application method; settings: 24 h; for mortality at 0.001 mg: read-out: Pesticidal effect, housefly
[2] = tested on: tobacco cutworm (Prodenia litura); experiment: Utility Example-5: spray on soy bean leaves, tobacco cutworm larvae; assay type: in vivo; settings: 48 h, 2 days
Experimental: An acetone solution of one of the test compounds as mentioned in Table 13 and Tween-20 (the same surfactant as mentioned hereinbefore) was prepared. This acetone solution was diluted with water to prepare a solution containing the test compound in a predetermined concentration. Leaves of soy bean in pots were sprayed with the above diluted solution at the rate of 20 ml/pot and, after one day, ten 3-instar larvae of tobacco cutworm (Prodenia litura) were released on the leaves. The pots were kept in a constant-temperature chamber at 25° C.

[3] = tested on: green rice leafhoppers (Nephotettix cincticeps Uhler); experiment: Mortality test with green rice leafhoppers by topical application method; settings: for mortality at 0.01 µg/female / mortality at 0.1 µg/female / mortality at 1 µg/female / mortality at 10 ng / LD50: Nephotettix cincticeps, in Oryza sativa, 24 h; for mortality at 10 ng: read-out: Pesticidal effect, green rice leafhopper; for LD50: read-out: LD50 (median lethal dose), topical, green rice leafhoppers
Experimental: Mortality test with green rice leafhoppers (Nephotettix cincticeps Uhler) by topical application method
Then, the insects were kept at 25° C. with access to rice plant seedlings. The insects were used in groups of 15 individuals each.

[4] = tested on: rice stem borers (Chilo suppressalis Walker); experiment: Mortality test with rice stem borers by topical application method; assay type: in vivo; settings: for mortality at 0.001 mg: read-out: Pesticidal effect, rice stem borer
Experimental: Mortality test with rice stem borers (Chilo suppressalis Walker) by topical application method
Using a microsyringe, 0.5 μl of the above solution was applied to the thoracic abdominal region of each final-instar larva of rice stem borer (Chilo suppressalis Walker). […] The test larvae were used in groups of 20 individuals each.

[5] = tested on: tobacco cutworms (Prodenia litura Fabricius); experiment: Mortality test with tobacco cutworms by topical application method; assay type: in vivo
Experimental: Mortality test with tobacco cutworms (Prodenia litura Fabricius) by topical application method
Using a microsyringe, 0.5 μl of the above solution was dripped onto the thoracic adbominal region of each of 3-instar tobacco cutworm (Prodenia litura Fabricius) larvae. […] The test larvae were used in groups of 20 individuals each.

[6] = Fish toxicity test with carp; assay type: in vivo, Cyprinus carpio L; settings: carp, water, 48 hrs., 21±1° C.; read-out: TLm, Carp (48 hrs.)
Experimental: Fish toxicity test with carp (Cyprinus carpio L)
An acetone solution of one of the test compounds as mentioned in Table 10 and Tween-20 (the same surfactant as mentioned hereinbefore) was prepared. To 50 liters of water (30 cm deep) in a glass tank was added the above acetone solution. The mixture was stirred thoroughly to prepare an aqueous solution containing the test compound in a predetermined concentration. This was used as a test water. Five carps (Cyprinus carpio L) with a body weight of about 6 g and a body length of about 6 cm were released into each test water which was maintained at 21±1° C. After 48 hours, the test fish was examined for death. The TLm (median tolerance limit, ppm) was determined. The test water was moderately aerated.

carp and water flea = experiment: Fish toxicity ranking according to Japanese regulations; set-up: species or system Cyprinus carpio L; Daphnia pulex; settings: from TLm for carp and water flea
Experimental: The above ranking with symbols A, B and C were determined according to Japanese regulations relative to application of agricultural chemicals, and these symbols are defined as follows: […]
A: TLm (48 hrs.) value >10 ppm for carp and TLm (3 hrs.) value >0.5 ppm for water flea, wherein toxicity to fishes is not observed by usual application.
B: TLm (48 hrs.) value 10-0.5 ppm for carp; or TLm (48 hrs.) value >10 ppm for carp and TLm (3 hrs.) value <0.5 ppm for water flea, wherein appreciable toxicity to fishes is not observed by usual application but may be observed when applied to wide area at one time.
C: TLm (48 hrs.) value <0.5 ppm for carp, wherein toxicity to fishes is so strongly observed by usual application that both the application method and application area are strictly restricted.

[7] = Fish toxicity test with guppies; assay type: in vivo, Lebistes reticulatus; settings: guppy, water, guppies, 20° C., read-out: TLm (48 hrs.)
Experimental: (§1) Fish toxicity test with guppies (Lebistes reticulatus)
(§2) To 5 liters of water were added 250 mg of Sorpol SM-200 (trademark, Toho Chemical Co., Ltd.) as a surfactant and 2.5 ml of an acetone solution containing one of the test compounds in a predetermined concentration. The mixture was stirred thoroughly to prepare a test water. Ten female guppies (Lebistes reticulatus) of from 3 to 4 months of age were released into the test water which was maintained at 20° C. and the TLm (median tolerance limit, ppm) was determined.

[8] = tested on: guppies (Lebistes reticulatus); experiment: Fish toxicity test with guppies; assay type: in vivo; settings: Table 1; 48 hrs.
Experimental: as §1, §2

[9] = tested on: brown planthoppers (Nilaparvata lugens Stal); experiment: Utility Example-1: LC50 on adult brown planthoppers on dipped rice plants; assay type: in vivo; settings: Nilaparvata lugens, 24 h, 25° C., read-out: Pesticidal activity LC50
Experimental: A 1% emulsifiable concentrate of each test compound as prepared by the procedure described in Formulation Example 2 was diluted with water to prepare a test solution of predetermined concentration.
Rice plants, 4 weeks after sowing (cultivated in a pot 6 cm in diameter, 7 seedlings) were dipped in the above solution and after allowing them to dry in the air, the pot was covered with a wire-mesh cage. Then, 30 adult brown planthoppers (Nilaparvata lugens Stal) were released into the cage and the pot was kept in a constant-temperature chamber at 25° C.

[10] = Fish toxicity safety factor (TLm divided by maximum concentration in cover water); set-up: species or system carp; settings: in vivo, TLm / maximum concentration in cover water at LC50 application (100 l per 10 ares, 5 cm depth)
Experimental: To further confirm the low toxicity to fish and high pesticidal activity of Compounds (1) and (2) according to this invention as evidenced by the fish toxicity tests with carps and the above tests, fish toxicity safety factors were calculated from the fish toxicity and pesticidal test data. These fish toxicity safety factors are indicators of safety to fish inhabiting a paddy field to which Compounds (1) and (2) may be actually applied for pest control purposes.
It is first assumed that such a pesticidal solution would normally be applied at the rate of 100 l per 10 ares of paddy field. It is also assumed that a solution (100 l) corresponding to the LC50 of the compounds would be applied to 10 ares of a paddy field carrying a cover water with a depth of 5 cm above ground surface and that all the solution would then find its way into the cover water. The expected maximum concentration of the compound in the cover water is then calculated. The fish toxicity safety factor of a pesticidal compound is defined as the value obtained by dividing the TLm (ppm) of the particular compound by the maximum concentration of the compound in cover water. The meaning of the value of the fish toxicity safety factor being one (1) is that the maximum concentration of the particular compound in cover water corresponds to the TLm of said compound. It is understood that when the pesticidal compound having a fish toxicity safety factor value of less than one (1) is applied to a paddy field, it has a risk of destroying the fish inhabiting there, and that the higher the safety factor value, the higher is the safety of the compound to fish.
This fish toxicity safety factor will now be explained in further detailed by taking the trans-isomer of Compound (2) of this invention as an example.
On the other hand, the toxicity to fish of this compound is TLm >10 ppm. Therefore, by dividing the TLm (i.e. >10 ppm) by the above cover water maximum concentration (i.e. 0.36 ppm), we obtain a fish toxicity safety factor of >28. Thus, the concentration of the trans-isomerof Compound (2) which kills 50% of pests corresponds to less than 1/28 of the concentration of the same isomer which kills 50% of fish. In other words, this means that the trans-isomer of Compound (2) is extremely safe to fish.

[11] = 24 h, read-out: Pesticidal effect, tobacco cutworm
[12] = 0.1 μg/Larva, 3-instar larvae, 24 hours, read-out: % Mortality
[13] = 1.0 μg/Larva, final-instar larva, 24 hours, read-out: % Mortality
[14] = 10 μg/Larva, final-instar larva, 24 hours, read-out: % Mortality

CC1(C)C(C=C(Cl)Cl)C1C(=O)OCc1cccc(Oc2ccccc2Cl)c1 (stereo not drawn)
mortality at 0.5 µg/female [1]: 30% | mortality at 1 µg/female [1]: 60%

CC1(C)C(C=C(Cl)Cl)C1C(=O)OCc1cccc(Oc2ccc(Br)cc2)c1 (stereo not drawn)
mortality at 6.5 ppm [2]: 10% | mortality at 13 ppm [2]: 100%

Cc1ccc(Oc2cccc(C(C#N)OC(=O)C3C(C=C(Cl)Cl)C3(C)C)c2)cc1C (stereo not drawn)
mortality at 0.5 µg/female [1]: 40% | mortality at 1 µg/female [1]: 80%

CC1(C)C(C=C(Cl)Cl)C1C(=O)OC(C#N)c1cccc(Oc2ccc(Br)cc2)c1 (stereo not drawn) [Compound (H)]
mortality at 0.01 µg/female [3]: 100% | mortality at 0.1 µg/female [3]: 100% | mortality at 1 µg/female [3]: 100% | mortality at 10 ng [3]: 100% | mortality at 1 µg/larva ([4]; 24 h): 90% | mortality at 10 µg/larva ([4]; 24 h): 100% | mortality at 0.001 mg ([4]; 24 h): 90% | mortality at 0.0001 mg ([5]; 24 h): 60% | mortality at 0.0001 mg [5, 11]: 60% | LC50 at 48 h [6]: 0.063 µg/mL (≈ 0.127 µM) | Ranking (carp and water flea): C (TLm (48 hrs.) value <0.5 ppm for carp, wherein toxicity to fishes is so strongly observed by usual application that both the application method and application area are strictly restricted.) | mortality at 6.5 ppm [2]: 40% | mortality at 13 ppm [2]: 100% | mortality at 0.5 µg/female [1]: 100% | mortality at 1 µg/female [1]: 100% | mortality at 0.001 mg [1]: 100%

CC1(C)C(C=C(Cl)Cl)C1C(=O)OC(C#N)c1cccc(Oc2cc(Cl)cc(Cl)c2)c1 (stereo not drawn)
mortality at 0.5 µg/female [1]: 0% | mortality at 1 µg/female [1]: 27%

CCOP(=S)(OCC)Oc1cc(C)nc(C(C)C)n1 [Diazinon, diazinon]
LD50 [3]: 72.2 mg/kg

C#CC(OC(=O)C(c1ccc(Cl)cc1)C(C)C)c1cccc(Oc2ccc(Cl)cc2)c1 (stereo not drawn) [Compound (K)]
mortality at 0.01 µg/female [3]: 33% | mortality at 0.1 µg/female [3]: 100% | mortality at 1 µg/female [3]: 100% | mortality at 0.0001 mg [5, 12]: 0%

Cc1cccc(Oc2cccc(COC(=O)C3C(C=C(Cl)Cl)C3(C)C)c2)c1 (stereo not drawn)
mortality at 0.5 µg/female [1]: 50% | mortality at 1 µg/female [1]: 80%

CCC(C)c1ccccc1OC(=O)NC (stereo not drawn) [Bassa, o-sec-butylphenyl methylcarbamate]
LD50 [3]: 93.8 mg/kg

CC(C)C(C(=O)OCc1cccc(Oc2ccc(Cl)cc2)c1)c1ccc(Cl)cc1 (stereo not drawn) [Compound (J)]
mortality at 1 µg/larva [4, 13]: 15% | mortality at 10 µg/larva [4, 14]: 90% | mortality at 0.0001 mg [5, 12]: 0%

C#CC(OC(=O)C1C(C=C(Cl)Cl)C1(C)C)c1cccc(Oc2ccccc2)c1 (stereo not drawn) [Compound (F)]
mortality at 0.01 µg/female [3]: 100% | mortality at 0.1 µg/female [3]: 100% | mortality at 1 µg/female [3]: 100% | mortality at 10 ng [3]: 100% | LC50 at 48 h [7]: < 0.5 µg/mL | Toxicity to fish TLm, guppy [8]: < 0.5 ppm | mortality at 0.5 µg/female [1]: 100% | mortality at 1 µg/female [1]: 100% | mortality at 0.001 mg [1]: 100%

Cc1ccc(Oc2cccc(COC(=O)C3C(C=C(Cl)Cl)C3(C)C)c2)cc1 (stereo not drawn)
mortality at 0.5 µg/female [1]: 80% | mortality at 1 µg/female [1]: 100%

CC(C)=CC1C(C(=O)OCc2cccc(Oc3ccccc3)c2)C1(C)C (stereo not drawn) [Compound (A), Phenothrin]
mortality at 0.01 µg/female [3]: 80% | mortality at 0.1 µg/female [3]: 100% | mortality at 1 µg/female [3]: 100% | LD50 [3]: 1.22 mg/kg | mortality at 10 ng [3]: 80% | mortality at 1 µg/larva ([4]; 24 h): 45% | mortality at 10 µg/larva ([4]; 24 h): 100% | mortality at 0.001 mg ([4]; 24 h): 45% | mortality at 0.0001 mg ([5]; 24 h): 35% | mortality at 0.0001 mg [5, 11]: 35% | mortality at 0.5 µg/female [1]: 97% | mortality at 1 µg/female [1]: 100% | mortality at 0.001 mg [1]: 100%

CC(C)C(C(=O)OC(C#N)c1cccc(Oc2ccc(Cl)cc2)c1)c1ccc(Cl)cc1 (stereo not drawn) [Compound (L)]
mortality at 1 µg/larva [4, 13]: 85% | mortality at 10 µg/larva [4, 14]: 100% | mortality at 0.0001 mg [5, 12]: 35% | LC50 at 48 h [6]: 0.032 µg/mL (≈ 0.0704 µM) | Ranking (carp and water flea): C (TLm (48 hrs.) value <0.5 ppm for carp, wherein toxicity to fishes is so strongly observed by usual application that both the application method and application area are strictly restricted.) | LC50 [9]: 2260 µg/mL (≈ 4970 µM) | selectivity ratio [10]: 0.0071

CC1(C)C(C=C(Cl)Cl)C1C(=O)OCc1cccc(Oc2cccc(Cl)c2)c1 (stereo not drawn)
mortality at 0.5 µg/female [1]: 60% | mortality at 1 µg/female [1]: 93%

COP(=S)(OC)Oc1ccc([N+](=O)[O-])c(C)c1 [Fenitrothion, fenitrothion]
LD50 [3]: 4050 mg/kg

CC1(C)C(C=C(Cl)Cl)C1C(=O)OCc1cccc(Oc2ccc(Cl)c(Cl)c2)c1 (stereo not drawn)
mortality at 0.5 µg/female [1]: 0% | mortality at 1 µg/female [1]: 20%

CCOC(=O)CC(SP(=S)(OC)OC)C(=O)OCC (stereo not drawn) [Malathion, malathion]
LD50 [3]: 565 mg/kg

C#CC(OC(=O)C1C(C=C(Cl)Cl)C1(C)C)c1cccc(Oc2ccc(Br)cc2)c1 (stereo not drawn)
mortality at 6.5 ppm [2]: 0% | mortality at 13 ppm [2]: 90%

CC1(C)C(C=C(Cl)Cl)C1C(=O)OCc1cccc(Oc2ccc(Cl)cc2)c1 (stereo not drawn) [Compound (1) cis-/trans- = 30:70]
LD50 (median lethal dose) ([3]; green rice leafhoppers, 1440 min): 0.85 µg/g
